Where a SMILES comes first, the peptide text is derived from it. [ ]: non-standard residue; d: D form. The star is where a group is joined. X1 = Cc1cn([C@H]2C[C@H](N=[N+]=[N-])[C@@H](COC(=O)CCC(=O)*)O2)c(=O)[nH]c1=O; Acetyl(2-naphthyl) = O=C(Cc1ccc2ccccc2c1)*; pY = N[C@@H](Cc1ccc(OP(=O)(O)O)cc1)C(=O)O
Columns and labels:
NCTC 929 (ATCC CCL 1) = assay: MTS viability assay, solubilized peptides; assay type: cell-based, murine; conditions: 500 µM; at each timepoint (6, 24, 72 h)
Protocol: Cell toxicity was assessed above and below critical gelation concentrations utilizing the International Standard (ISO) murine fibroblast subcutaneous connective tissue cell line NCTC 929 (ATCC CCL 1).^[ [51] ^]
Preparation of tissue cell cytotoxicity assays: Cells were cultured in Minimum Essential Medium (MEM) containing phenol red, Earle's Salts, and L‐glutamine supplemented with 10% fetal bovine serum and 1 mM sodium pyruvate (Invitrogen, Paisley, UK) and grown at 37 °C/5% CO2. Cells were subcultured at 80–90% confluency via removal of media, washing with sterile PBS, and detachment of cell monolayers with 0.05% trypsin/0.53 mM EDTA.4Na solution (Invitrogen, Paisley, UK). Cells were cultured until at least the third passage, seeded at 1 × 10^4 cells per well in sterile 96‐well microtiter plates for 6 h, 24 h, and 56 day treatment times and seeded at 5 × 10^3 cells per well for 72 h treatment times. […]
Following exposure to peptide after 6, 24 and 72 h, cell viability was assessed using a MTS based CellTiter 96 AQueous One Solution Cell Proliferation Assay (Promega, Southampton, UK). Absorption was measured at 490 nm using a Tecan Sunrise plate reader (Tecan UK Ltd, Reading, UK). Cell viability was calculated using Equation (2) below and reported as the mean of nine replicates.

proteinase K = proteinase K (Parengyodontium album, UniProt P06873); assay: Biostability against proteinase K; assay type: in vitro ADME; conditions: after 672 h (28 days); 0.02 w/v% peptide in PBS; proteinase K 3 U/mL; 37 °C; RP-HPLC peak area vs t = 0; mean n = 3
Chain of proteinase K (P06873 106-384): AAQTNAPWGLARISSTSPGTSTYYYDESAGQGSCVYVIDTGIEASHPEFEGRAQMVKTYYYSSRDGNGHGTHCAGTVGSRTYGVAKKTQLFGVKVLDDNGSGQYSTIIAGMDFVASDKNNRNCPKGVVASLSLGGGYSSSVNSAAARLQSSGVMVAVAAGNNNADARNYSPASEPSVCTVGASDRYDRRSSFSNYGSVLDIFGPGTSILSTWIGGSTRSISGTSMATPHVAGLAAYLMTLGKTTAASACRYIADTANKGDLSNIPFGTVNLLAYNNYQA
Protocol: Peptides were tested for stability at multiple time points over 28 days by incubation with the broad‐spectrum protease proteinase K. Peptides were tested in solution form at concentrations below their critical gelation concentrations (0.02 w/v%) to reduce any resistance to proteolysis offered by the hydrogel matrix itself.^[ [76] ^] 1 mL aliquots of peptide dissolved in PBS buffer were added to Eppendorf tubes. Proteinase K was added at a concentration of 3 U/mL and incubated at 37 °C. Then 100 µL samples were removed at pre‐determined time points (t = 0, 0.5, 1, 3, 6, 24, 72, 168, 336, 504, and 672 h) and added to 50 µL of concentrated acetic acid to inactivate proteinase K enzyme. Then 100 µL samples were then analyzed via RP‐HPLC. The amount of peptide remaining at each time point was calculated based on the area of the peak corresponding to the peptide and presented as a percentage of the area of this peak at t = 0 (Equation (1)). (1) %Peptideremaining=Areaofpeptidepeakattesttimepoint/[Areaofpeptidepeakatt=0]×100

[1] = tested on: alkaline phosphatase enzyme; assay: Rheological time sweeps, gelation time after alkaline phosphatase addition; assay type: physicochemical; conditions: time sweep, 2 w/v%, 2 U alkaline phosphatase, 37 °C; for G′ and G″ cross (gelation time): PP50/S parallel plate, 0.5 mm gap
Protocol: The gelation of peptides and peptide‐antiretroviral conjugates was tested over a range of concentrations (0.1–2 w/v%) in pH 7.4 phosphate buffered saline (PBS). The ability of alkaline phosphatase enzyme to trigger gelation was studied by adding 2 µL of 2 U (1000 U/mL) solution to the dissolved peptide‐PBS mixtures. Hydrogel formulation steps are outlined fully in Table S2, Supporting Information. A vial inversion assay was used as a screening tool to assess gel propensity, whereby peptide‐PBS‐alkaline phosphatase mixtures were inverted within glass HPLC vials. Gel formation and the mechanical strength of gels were definitively characterized via oscillatory rheology using an Anton Paar MCR302 rheometer (Anton Paar, St Albans, UK). A vane and cup geometry was used to perform frequency and strain sweeps. Gels were formulated as 2 mL volumes in 7 mL Sterilin vials as previously described.^[ [39b] ^] Frequency sweeps were performed at 37 °C from 1–100 rad/s at a strain of 0.5%. Amplitude sweeps were performed at 37 °C, 2.5 rad/s and a strain of 0.01–1000%. Flow point or breakage strain, where G″ ≥ G′ within the strain sweeps, was used as a measurement of gel strength. Time sweeps were performed using a sand blasted parallel plate PP50/S system at 37 °C with a 0.5 mm measuring gap over a period of 24 h. Loss and storage moduli, critical strain, viscosity, and oscillatory time sweeps were performed to relate rheological changes with time and potential for rapid in situ hydrogel implant formation upon exposure to 2 U phosphatase enzyme.
Table S3. Gelation times for peptide hydrogels upon addition of alkaline phosphatase enzyme derived from data above in Figure S12 and Figure 3 c-d.
Peptide G′ and G″ G′ > 2x G′′ Time for […]
d) NapFFK(AZT)Y-OH 8.5 min 9 min 88.3 min

[2] = Small angle neutron scattering (SANS) of hydrogels; assay type: physicochemical; conditions: 2 w/v% hydrogels in D2O; flexible cylinder elliptical model with Power Law
Protocol: SANS was used to determine the morphology of the structures underpinning the hydrated peptide gel network. Both drug and non‐drug conjugated forms of peptides L‐α (NapFFKY‐OH and NapFFKYG‐OH) and D‐enantiomer (NapffkY‐OH and NapffkYG‐OH) were studied. Peptide hydrogels (2 w/v%) were formulated as described (Table S2, Supporting Information) in 2 mm path length UV spectrophotometer grade quartz cuvettes (Hellma) but using deuterated water (D2O) rather than PBS. SANS measurements were performed using the D11 instrument at the Institut Laue – Langevin, Grenoble, France. Scattering from the primary assembled structures (most commonly fibers) and the network were collected over a wide Q range (Q = 4πsin(θ/2)/λ) of 0.001 to 0.5 Å^−1 and three sample‐detector distances (1.4, 8, and 39 m).^[ [44] ^] Peptide samples were placed in a temperature‐controlled sample rack during measurements. The datasets obtained were reduced to 1D scattering curves of intensity versus Q using the facility provided software. Scattering from D2O controls, empty cuvette, and electronic background were subtracted from the data and the full detector images were normalized. SasView software version 5.0.4 was used to fit instrument‐independent data to several models with and without a power law applied, including a cylinder, an elliptical cylinder, a flexible cylinder, a flexible elliptical cylinder and hollow cylinders. […]

NCTC 929 cells = assay: 56 day indirect toxicity of hydrogels, LDH; assay type: cell-based, murine; conditions: 2 w/v% hydrogel supernatant; 6 h exposure; n = 3
Protocol: Biocompatibility at the highest gel concentration of 2.0 w/v% was examined by measuring cell metabolic activity (MTS) and cytotoxicity (LDH release) in the presence of media containing leached degradation products from the peptide gels over a period of 56 days.^[ [77] ^] Following the formation of gels as outlined in Table S2, Supporting Information, 2 mL of media was added on top of each gel (1 mL of 2 w/v% gel) within a 10 mL glass vial and incubated at 37 °C and 5% CO2. For each time point in the 56 day study, NCTC 929 cells at 80–90% confluency were seeded into the wells of a 96 well plate at a concentration of 1 × 10^4 cells per well and incubated for a period of 24 h. One set of wells was left untreated and acted as the negative control, that is, metabolic activity of cells with no peptide. In the case of the LDH indirect toxicity assay, the media was removed from the cells before adding 50 µL of fresh media and 50 µL of the supernatant from the 2.0 w/v% gels at specific time points: 1, 3, 7, 14, 21, 28, and 56 days and incubated for 6 h before adding the test reagent as described above. A high LDH release control and a low LDH release control were created as before. Each experiment was performed in triplicate. The percentage cytotoxicity was calculated using Equation (2) above. […] The metabolic activity was calculated using Equation (1) above.

**Q.** With `Cc1cn([C@H]2C[C@H](N=[N+]=[N-])[C@@H](COC(=O)CCC(=O)NCCCC[C@H](NC(=O)[C@H](Cc3ccccc3)NC(=O)[C@H](Cc3ccccc3)NC(=O)Cc3ccc4ccccc4c3)C(=O)N[C@@H](Cc3ccc(OP(=O)(O)O)cc3)C(=O)O)O2)c(=O)[nH]c1=O` [NapFFK(AZT)Y(p)-OH] ({Acetyl(2-naphthyl)}-FFK(X1)[pY]-OH) as the compound, how does the “reduction in cell metabolic activity (MTS)” value (NCTC 929 (ATCC CCL 1)) read?
**A.** Its value is 40–51%.

**Q.** For `Cc1cn([C@H]2C[C@H](N=[N+]=[N-])[C@@H](COC(=O)CCC(=O)NCCCC[C@H](NC(=O)[C@H](Cc3ccccc3)NC(=O)[C@H](Cc3ccccc3)NC(=O)Cc3ccc4ccccc4c3)C(=O)N[C@@H](Cc3ccc(OP(=O)(O)O)cc3)C(=O)NCC(=O)O)O2)c(=O)[nH]c1=O` [NapFFK(AZT)Y(p)G-OH], which “zidovudine blood plasma concentrations for 35 days” value (subcutaneous administration, within IC50 range) is on record?
**A.** Its value is 30 to 130 ng/mL.

**Q.** For `NCCCC[C@H](NC(=O)[C@H](Cc1ccccc1)NC(=O)[C@H](Cc1ccccc1)NC(=O)Cc1ccc2ccccc2c1)C(=O)N[C@@H](Cc1ccc(OP(=O)(O)O)cc1)C(=O)O` [NapFFKY(p)-OH, phosphorylated (naphthalene‐2‐ly)‐acetyl‐diphenylalanine‐lysine‐tyrosine‐OH] (HELM PEPTIDE1{[O=C(Cc1ccc2ccccc2c1)[*:2]].F.F.K.[O=C(O)[C@H](Cc1ccc(OP(=O)(O)O)cc1)N[*:1]]}$$$$V2.0), which “% peptide remaining” value (proteinase K) is on record?
**A.** The value was 85.4%.

**Q.** With `NCCCC[C@H](NC(=O)[C@H](Cc1ccccc1)NC(=O)[C@H](Cc1ccccc1)NC(=O)Cc1ccc2ccccc2c1)C(=O)N[C@@H](Cc1ccc(OP(=O)(O)O)cc1)C(=O)NCC(=O)O` [NapFFKY(p)G-OH] as the compound, how does the “% peptide remaining” value (proteinase K) read?
**A.** Its value is 91.9%.

**Q.** Which “time after which plasma zidovudine is undetectable” value (zidovudine intravenous control) does the source give for `Cc1cn([C@H]2C[C@H](N=[N+]=[N-])[C@@H](CO)O2)c(=O)[nH]c1=O` [zidovudine, reference compound] here?
**A.** Its value is 6 h.

**Q.** Which “G′ > 2x G″” value [1] does the source give for “NapFFKY-OH [hydrogel-forming peptide after phosphatase removal of the phosphate group]” here?
**A.** The value was 9.67 min.

**Q.** And the “Time for stable G′” value [1]?
**A.** The value was 68.3 min.

**Q.** And the “G′ and G″ cross (gelation time)” value [1]?
**A.** The value was 8.58 min.

**Q.** What about the fiber radius [2] of the same compound?
**A.** Its fiber radius is 1.495 nm.

**Q.** Which “LDH cell toxicity, indirect, after 21 days” value (NCTC 929 cells) does the source give for “NapFFKYG-OH [hydrogel-forming L-α peptide with glycine spacer]” here?
**A.** Its value is 23.2%.

**Q.** And the “LDH cell toxicity, indirect, after 56 days” value (NCTC 929 cells)?
**A.** The value was 37%.

**Q.** What about the “G′ > 2x G″” value [1] of the same compound?
**A.** Its value is 7.75 min.

**Q.** What about the “Time for stable G′” value [1] of the same compound?
**A.** Its value is 65.7 min.

**Q.** What about the “G′ and G″ cross (gelation time)” value [1] of the same compound?
**A.** The value was 5.92 min.

**Q.** What about the fiber radius [2] of the same compound?
**A.** The fiber radius was 2.038 nm.

Source: paper PMC11469249, “Enzyme‐Triggered L‐α/D‐Peptide Hydrogels as a Long‐Acting Injectable Platform for Systemic Delivery of HIV/AIDS Drugs” (Advanced Healthcare Materials, 2023)
